We go through three molecules from PMC5840262, “Design, Synthesis and Evaluation of Branched RRWQWR-Based Peptides as Antibacterial Agents Against Clinically Relevant Gram-Positive and Gram-Negative Pathogens” (Frontiers in Microbiology, 2018).

Test [1] has as its system P. aeruginosa ATCC-27853 (resistant). As to the kind of experiment: Scanning electron microscopy of treated bacteria. The settings on record: 3 × MIC50, 2 h, 37°C. It counts as cell-based, Pseudomonas aeruginosa. As to the method:
(§1) We observed bacterial morphology by SEM. The E. faecalis and P. aeruginosa strains were grown to mid-logarithmic phase, and adjusted spectrophotometrically to a McFarland standard of 0.5 (corresponding to ~1 × 10^8 CFU/mL). Subsequently, 1 mL of bacterial suspension was distributed into three tubes: one tube was treated with (RRWQWR)2KAhx at 3 × the MIC50; another tube, with (RRWQWR)4K2Ahx2C2 at the same concentration; and the third tube was left untreated, as a control. The samples were incubated aerobically at 37°C for 2 h, and the bacterial suspensions were centrifuged at 1,459 × g for 3 min and then, washed twice with Millonig's Phosphate Buffer (0.10 M, pH 7.4). For SEM, each sample was fixed with 1 mL of 2.5% glutaraldehyde at 4°C for 2 h. The fixed samples were dehydrated in an ethanol gradient (50, 70, 80, 90, and 100%) for 20 min and then, centrifuged at 1,459 × g for 10 min. The bacterial pellet was resuspended in 100% ethyl alcohol and air-dried. Finally, the slides were taped onto stubs, coated with gold using a Quorum Q150R sputter coater, and observed with an FEI Quanta 200-r microscope.
(§2) We used SEM to study the morphology of bacterial cells before and after treatment with either branched peptide (dimeric and tetrameric). To this end, each strain of E. faecalis and P. aeruginosa was first studied by SEM; then, independently treated in the exponential phase with either peptide at 3 × the corresponding MIC50 value for 2 h (except for the resistant E. faecalis strain, for which a peptide concentration of 200 μM was used); and finally, studied by SEM again.

The subject of test [2] is P. aeruginosa ATCC-10145 (sensitive). As to the kind of experiment: Scanning electron microscopy of treated bacteria. It counts as cell-based, Pseudomonas aeruginosa. The settings on record: 3 × MIC50, 2 h, 37°C. As to the method:
as §1, §2

Test [3] deals with Klebsiella pneumoniae ATCC 700603 (resistant). To be noted: K. pneumoniae ATCC 700603, resistant strain; MIC50 previously obtained with the same assay (M7-A7); ref Leon-Calvijo et al., 2015; cited from earlier work. The text has this: Table 6 Therapeutic Index values for the RRWQWR-based peptides against the ATCC strains of HCAI-relevant bacteria. | column: Gram negative / MIC (μM) / ^l700603-^fR

Test [4] has as its system Klebsiella pneumonia ATCC 13883 (sensitive). To be noted: K. pneumoniae ATCC 13883, sensitive strain; MIC50 previously obtained with the same assay (M7-A7); ref Leon-Calvijo et al., 2015; cited from earlier work. The text has this: Table 6 Therapeutic Index values for the RRWQWR-based peptides against the ATCC strains of HCAI-relevant bacteria. | column: Gram negative / MIC (μM) / ^k13883-^cS

Test [5] concerns Gram-positive ATCC strains (E. faecalis 29212, S. aureus 25923 and 33591). As to the kind of experiment: Therapeutic index, Gram-positive ATCC strains. To be noted: for Fold (GM peptide / GM tetrameric peptide): Gram-positive ATCC strains; for Gm, geometric mean of MIC50 values: Gram-positive ATCC strains 29212, 25923, 33591. An excerpt: We determined the therapeutic index of each peptide, which we defined as the ratio of Maximum Hemolytic Activity (Hmax) to MIC50 (Hmax/MIC50).
The therapeutic index (TI) is a ratio of the toxic dose of a substance to its therapeutically-active dose and can be calculated different ways (e.g., LD50/ED50). Here, we calculated a TI value for each peptide against all the Gram-positive or the Gram-negative ATCC strains, by dividing its Hmax by its MIC50 for the given group of strains. […] Additionally, to make our quantitative analysis more robust [geometric mean (Khachatryan et al., [2017]) and fold values], we have included MIC50 values for these peptides against S. aureus and K. pneumoniae that we previously obtained using the same assay, the M7-A7 method of the National Committee for Clinical Laboratory Standards (Leon-Calvijo et al., [2015]).

Test [6] has as its system Staphylococcus aureus ATCC 25923 (sensitive). To be noted: S. aureus ATCC 25923, sensitive strain; MIC50 previously obtained with the same assay (M7-A7); ref Leon-Calvijo et al., 2015; cited from earlier work. An excerpt: Table 6 Therapeutic Index values for the RRWQWR-based peptides against the ATCC strains of HCAI-relevant bacteria. | column: Gram positive / MIC (μM) / ^d25923-^cS

Test [7] has as its system Staphylococcus aureus ATCC 33591 (resistant). To be noted: S. aureus ATCC 33591, resistant strain; MIC50 previously obtained with the same assay (M7-A7); ref Leon-Calvijo et al., 2015; cited from earlier work. An excerpt: Table 6 Therapeutic Index values for the RRWQWR-based peptides against the ATCC strains of HCAI-relevant bacteria. | column: Gram positive / MIC (μM) / ^e33591-^fR

Test [8] relates to E. faecalis ATCC-29212 (sensitive). As to the kind of experiment: Scanning electron microscopy of treated bacteria. It is filed as cell-based, Enterococcus faecalis. To be noted: 3 × MIC50, 2 h, 37°C. As for the experimental part: as §1
We used SEM to study the morphology of bacterial cells before and after treatment with either branched peptide (dimeric and tetrameric). […]

The subject of another test is ATCC reference strains. The experiment in a line: Antibacterial activity against the ATCC reference strains, overall. It counts as cell-based. The settings on record: against the ATCC reference strains of E. faecalis and P. aeruginosa, all strains together. As to the method:
We screened all five peptides against the ATCC reference strains and the clinical isolates according to Method M7-A7 of the National Committee for Clinical Laboratory Standards (CLSI, [2007]). The MIC50 and MBC values were determined using a broth microdilution and growth inhibition method previously reported by Leon-Calvijo et al. ([2015]), with some modifications (Wiegand et al., [2008]). Briefly, the MIC50 experiments comprised a liquid-inhibition growth assay in a sterile, untreated, 96-well flat-bottom tissue culture plate. […] The turbidity of the cultures was measured and adjusted spectrophotometrically to a McFarland standard of 0.5, and then diluted to a final concentration of 5 × 10^7 colony forming units (CFU) per well. […] Each concentration was evaluated in duplicate and each assay was performed in triplicate.
Wells containing Mueller Hilton broth with bacterial inoculum only served as bacterial-growth controls. […] The microplate was incubated for 24 h at 37°C, and growth inhibition was measured by monitoring the optical density at 620 nm (OD620). […]
To determine the MBC, an aliquot from each well of the MIC50 assay was spread onto Mueller Hilton agar. After 18 h at 37°C, the concentration that inhibited bacterial growth was determined. […]

In brackets after ≈: the same amount, converted by molar mass. Bridge positions count the residues as written; N and C are the ends. Square brackets hold non-standard residues; d marks the D form. Ends that are not written are not given here. Peptide text beside a SMILES is read from it. I, II: the chains in the order shown. Ahx = NCCCCCC(=O)O

For `N=C(N)NCCC[C@H](NC(=O)[C@H](Cc1c[nH]c2ccccc12)NC(=O)[C@H](CCC(N)=O)NC(=O)[C@H](Cc1c[nH]c2ccccc12)NC(=O)[C@H](CCCNC(=N)N)NC(=O)[C@@H](N)CCCNC(=N)N)C(=O)NCCCC[C@H](NC(=O)[C@H](CCCNC(=N)N)NC(=O)[C@H](Cc1c[nH]c2ccccc12)NC(=O)[C@H](CCC(N)=O)NC(=O)[C@H](Cc1c[nH]c2ccccc12)NC(=O)[C@H](CCCNC(=N)N)NC(=O)[C@@H](N)CCCNC(=N)N)C(=O)NCCCCCC(N)=O` [LfcinB (20–25)2] (I: H-RRWQWRK[Ahx]-NH2 / II: H-RRWQWR; amide I:7-II:C; N-terminus assumed), the “Morphology of bacterial cells by SEM after treatment” value is “marked drop in population and severe morphological alterations” in test [1]; “clear reduction in population and caused morphological alterations” in test [2]; “random organization with morphological alterations” in [8]. Besides, the MIC in [3] is 7.3 µM (≈ 16 µg/mL); in [4], 9.0 µM (≈ 19.8 µg/mL); in test [6], 3.0 µM (≈ 6.59 µg/mL); in [7], 24.1 µM (≈ 52.9 µg/mL). For the same molecule, the “Fold (GM peptide / GM tetrameric peptide)” value in test [5] is 3.1. In test [5], this molecule gave a Gm, geometric mean of MIC50 values of 9.8 µM.
As to “(RRWQWR)4K2Ahx2C2 (disulfide) [LfcinB (20–25)4, branched tetrameric peptide (RRWQWR)4K2Ahx2C2, two dimers linked by a cysteine disulfide bridge]”, the “Morphology of bacterial cells by SEM after treatment” value is “disintegrated and irregularly-shaped mucoid cells” in [1]; “very heterogeneous population and to alterations in the cell surface” in [2]; “population decline, cell-size heterogeneity and cell-surface alterations in the form of protrusions” in test [8]. In addition, the MIC was 6.2 µM in test [3], 12.0 µM in test [4], 1.7 µM in test [6] and 5.9 µM in [7]. The “Fold (GM peptide / GM tetrameric peptide)” value in [5] is recorded as 1.0. In test [5], this molecule yielded a Gm, geometric mean of MIC50 values of 3.1 µM.
Regarding “RRWQWR-NH2 [LfcinB (20–25), reference compound]”, in the test with ATCC reference strains, the MIC50 was over 200 µM.
